Results: patent US20260274843A1, “SALT AND SOLID FORMS OF A CDK INHIBITOR” (GENENTECH, INC., priority 2023, published 2026)
Converted amounts (≈) assume the structure as drawn. One block for each molecule: values may come before it.

How the values were obtained:
Type in all cases: physicochemical
[1] = Estimated solubility measurement in selected solvents at room temperature; conditions: thermodynamic from solid
Protocol: Preliminary solubility of Compound (I) was estimated in 13 selected solvents at room temperature. About 2 mg of Compound (I) was weighed into sample vials and different solvents were added with vortex, 20-200 μL per time, until the drug solution was clear by observation. The volume of solvent was up to 1000 V. Then, the estimated solubility (mg/mL) was calculated.

[2] = Solubility testing in bio-relevant media (SGF, FaSSIF, FeSSIF) and water at 37° C.; conditions: after 0.5 hours
Protocol: The solubility of maleate Form I, and tosylate Form I were tested in bio-relevant media (SGF, FaSSIF, and FeSSIF) and water at 37° C. up to 24 hours. About 15 mg of the sample was weighed into sample vials and then 3 mL of media was added to make a suspension. All suspensions were shaken at 37° C. with a rate of 200 rpm. At 0.5, 2 and 24 hours, each suspension was filtered and the filtrate was analyzed by HPLC to test the solubility. pH of the filtrate was measured, and the filter cake was analyzed by XRPD.

[3] = Dynamic vapor sorption (DVS) moisture sorption/desorption; conditions: for hygroscopicity: in words
Protocol: Moisture sorption/desorption data was collected on a DVS Intrinsic PLUS (SMS, UK). The sample was placed into a tared sample chamber and automatically weighed. The sample was dried at 40° C./0% RH until the dm/dt was less than 0.002% and cooled to 25° C. The instrument parameters were set as below. • Sample temperature: 25° C. • Min time per step: 30 min • Max time per step: 120 min • Cycle: Full cycle • Adsorption: 0, 10, 20, 30, 40, 50, 60, 70, 80, 90 • Desorption: 80, 70, 60, 50, 40, 30, 20, 10, 0 • Save data rate: 5 s • Total flow rate: 200 sccm • Post experimental total flow: 200 sscm

[4] = Inter-conversion study by competitive slurry of mixed forms (XRPD); conditions: for resulting form after competitive slurry: RT and 50° C. or 60° C.
Protocol: Inter-conversion study was performed by competitive slurry of mixed different forms in solvents. The concentration of all slurry suspensions was 20 mg/mL.
Equal amount of Form I, II, III and IV were added into MeOH, IPA, EA, ACN and water to make suspensions, respectively. All suspensions were stirred at RT and 50° C. The filter cakes were checked by XRPD.
Equal amount of Form I and II were added into the saturated solution of Compound (I). The suspensions were stirred in MeOH, IPA and EA at 60° C. overnight. The filter cakes were checked by XRPD.
Equal amount of Form II and VII were added into the saturated solution of Compound (I). The suspensions were stirred in IPA and EA at RT and 50° C. The filter cakes were checked by XRPD.
Equal amount of Form II and VI were slurred in different water activity system (1 mL of EtOH/water) at RT for 3 days. Solid samples were collected by filtration and analyzed by XRPD.
Equal amount of Form III and VI were slurred in water at RT and 50° C. Solid samples were collected by filtration and analyzed by XRPD.

[5] = Mechanical treatment (grinding), XRPD check; conditions: ground in mortar, checked at 2 min and 5 min
Protocol: Form II (~15 mg) was ground into a mortar for about 5 minutes, and then checked by XRPD at 2 min and 5 min, respectively.

[6] = Solid stability at 40° C./75% RH and 60° C. (HPLC purity, XRPD); conditions: open; for Purity (Area %): HPLC
Protocol: (§1) Form II was prepared, characterized, and used for stability study. Solid stability of Form II was evaluated at RT/92.5% RH, 60° C. and 40° C./75% RH conditions for 10 days, respectively.
An amount of Form II was open placed at 60° C. and 40° C./75% RH up to 10 days. At 0, 3 and 10 day, the sample was dissolved in diluent to prepare solution for purity analysis by HPLC. Solid samples were analyzed by XRPD to check the crystal form. […] Form II was physically and chemically stable at 40° C./75% RH and 60° C. for 10 days.
Appropriate amounts of maleate Form I and tosylate Form I were placed at 60° C. and 40° C./75% RH for up to 24 days. At 0 and 24 day, the sample was dissolved in diluent to prepare solution for purity analysis by HPLC. Solid samples were analyzed by XRPD to check the crystal form.

[7] = Physical stability at RT/92.5% RH (XRPD); conditions: open, 10 days
Protocol: as §1
Appropriate amount of Form II was open put at RT/92.5% RH condition for 10 days. Then, the sample was checked by XRPD.

[8] = 40° C./75% RH and 60° C., up to 10 days

solubility ([1]; organic solvent or mixture, DCM): > 120 mg/mL
solubility ([1]; organic solvent or mixture, MeOH, MEK, EtOH and ACN): 1 to 7 mg/mL (≈ 2.13 to 14.9 mM)
solubility ([1]; organic solvent or mixture, THF): ~20 mg/mL (≈ 42.5 mM)
solubility ([1]; other selected solvents): < 1 mg/mL
Compound: CC(C)c1cnn2ccc(-c3ccnc(Nc4ccc(N5CC[C@H](N(C)C)CC5=O)cn4)n3)cc12 [Compound (I), (S)-4-(dimethylamino)-1-(6-((4-(3-isopropylpyrazolo[1,5-a]pyridin-5-yl)pyrimidin-2-yl)amino)pyridin-3-yl)piperidin-2-one]

crystal form in water during solubility test [2]: converted to a metastable hydrate
hygroscopicity [3]: non-hygroscopicity
resulting form after competitive slurry ([4]; non-aqueous solvent): transformed to Form II
Compound: CC(C)c1cnn2ccc(-c3ccnc(Nc4ccc(N5CC[C@H](N(C)C)CC5=O)cn4)n3)cc12 [Form I, (S)-4-(dimethylamino)-1-(6-((4-(3-isopropylpyrazolo[1,5-a]pyridin-5-yl)pyrimidin-2-yl)amino)pyridin-3-yl)piperidin-2-one]

crystal form after grinding [5]: remained unchanged
reversibility of DVS adsorption/desorption plot [3]: nearly reversible
water absorbed (DVS) ([3]; 0-90% RH, 25° C.): ~ 0.5%
crystal form after DVS testing ([3]; XRPD after DVS): remained unchanged
hygroscopicity [3]: slightly hygroscopic
physical stability in competitive slurry with Form VI ([4]; EtOH/water with less than 5% of water, RT): physically stable
relative stability among anhydrous forms ([4]; temperature below 60° C., non-aqueous solvent): most stable anhydrous form
resulting form after slurry in water ([4]; 50° C.): mixture of Form II and III
resulting form after slurry in water ([4]; RT): transform to Form III
crystal form change (XRPD) [6, 8]: no form changed
degradation (purity by HPLC) [6, 8]: No obvious degradation
Purity (Area %) ([6]; 40° C./75% RH, 0 d (initial)): 99.17 Area %
Purity (Area %) ([6]; 40° C./75% RH, 3 d): 99.15 Area %
Purity (Area %) ([6]; 40° C./75% RH, 10 d): 99.13 Area %
Purity (Area %) ([6]; 60° C., 0 d (initial)): 99.17 Area %
Purity (Area %) ([6]; 60° C., 3 d): 99.15 Area %
Purity (Area %) ([6]; 60° C., 10 d): 99.09 Area %
crystal form change (XRPD) [7]: No form change
Compound: CC(C)c1cnn2ccc(-c3ccnc(Nc4ccc(N5CC[C@H](N(C)C)CC5=O)cn4)n3)cc12 [Form II, (S)-4-(dimethylamino)-1-(6-((4-(3-isopropylpyrazolo[1,5-a]pyridin-5-yl)pyrimidin-2-yl)amino)pyridin-3-yl)piperidin-2-one]
resulting form in competitive slurry with Form VI ([4]; EtOH/50% water, RT): transformed to the mixture of Form II and III

resulting form after competitive slurry ([4]; non-aqueous solvent): transformed to Form II
resulting form after slurry in water ([4]; 50° C.): to Form VI
Compound: CC(C)c1cnn2ccc(-c3ccnc(Nc4ccc(N5CC[C@H](N(C)C)CC5=O)cn4)n3)cc12 [Form III, (S)-4-(dimethylamino)-1-(6-((4-(3-isopropylpyrazolo[1,5-a]pyridin-5-yl)pyrimidin-2-yl)amino)pyridin-3-yl)piperidin-2-one]

resulting form after competitive slurry ([4]; non-aqueous solvent): transformed to Form II
Compound: CC(C)c1cnn2ccc(-c3ccnc(Nc4ccc(N5CC[C@H](N(C)C)CC5=O)cn4)n3)cc12 [Form IV, (S)-4-(dimethylamino)-1-(6-((4-(3-isopropylpyrazolo[1,5-a]pyridin-5-yl)pyrimidin-2-yl)amino)pyridin-3-yl)piperidin-2-one]

resulting form after slurry in water ([4]; RT): transformed to Form III
Compound: CC(C)c1cnn2ccc(-c3ccnc(Nc4ccc(N5CC[C@H](N(C)C)CC5=O)cn4)n3)cc12 [Form VI, (S)-4-(dimethylamino)-1-(6-((4-(3-isopropylpyrazolo[1,5-a]pyridin-5-yl)pyrimidin-2-yl)amino)pyridin-3-yl)piperidin-2-one]
